According to patent US20240376085A1 (Janssen Pharmaceutica NV, priority 2021, published 2024):

Experiments:
[1] = test system: IL-17A-induced G-CSF production in human normal keratinocyte (NHK); assay: NHK assay: IL-17A-induced G-CSF production in normal human keratinocytes; format: cell-based; settings: Homo sapiens, Keratinocyte, 24 h, IL-17A 5 ng/mL, average if tested more than once
Method in brief: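 Compound titrations are first mixed with recombinant human IL-17A for 1 h at room temperature. The mixture goes onto adult normal human keratinocytes (final IL-17A 5 ng/mL, 5% FBS, 0.2% DMSO) for 24 h at 37 °C. Secreted G-CSF is then measured by HTRF and IC50 fitted.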

IL-17A : IL-17RA binding = molecular target: T1, IL-17A : IL-17RA binding (Homo sapiens, UniProt Q16552, K93Q); assay: IL-17A(FLAG-tagged):IL-17RA(His-tagged) binding disruption Eu-HTRF assay, Protocol 1; settings: FLAG-IL-17A 2.5 nM at 2x final concentration; average if tested more than once
T1 construct: Name: IL-17A-Flag
Method in brief: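 IC50 came from a one-site competition fit of the acceptor/donor (665/620 nm) HTRF ratio. His-tagged IL-17RA, Eu-anti-FLAG and D2-anti-His were added after a 1 h rt compound preincubation with FLAG-tagged IL-17A dimer in PBS/0.01% Triton X-100, followed by 2 h at rt before reading.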

T1 sequence (Q16552 with tags, fused parts or gaps K93Q): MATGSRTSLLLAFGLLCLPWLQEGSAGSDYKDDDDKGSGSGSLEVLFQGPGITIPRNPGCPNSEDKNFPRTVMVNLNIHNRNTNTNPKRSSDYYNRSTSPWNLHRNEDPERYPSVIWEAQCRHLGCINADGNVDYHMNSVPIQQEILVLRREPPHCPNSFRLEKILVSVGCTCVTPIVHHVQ

Structure (SMILES) | IC50 [1] [nM] | IC50 (IL-17A : IL-17RA binding) [nM]
C[C@@H](NC(=O)CCC(F)(F)F)c1ccc2nc([C@@H](NC(=O)c3ccccc3)C3CCC(F)(F)CC3)[nH]c2c1 [Example 120, N—((S)-(4,4-Difluorocyclohexyl)(6-((R)-1-(4,4,4-trifluorobutanamido)ethyl)-1H-benzo[d]imidazol-2-yl)methyl)benzamide] | 50 to 100 | > 100
C[C@@H](NC(=O)CCC(F)(F)F)c1ccc2nc([C@@H](NC(=O)c3ccnn3CCC(F)(F)F)C3CCC(F)(F)CC3)[nH]c2c1 [Example 121, N—((S)-(4,4-Difluorocyclohexyl)(6-((R)-1-(4,4,4-trifluorobutanamido)ethyl)-1H-benzo[d]imidazol-2-yl)methyl)-1-(3,3,3-trifluoropropyl)-1H-pyrazole-5-carboxamide] | < 50 | > 100
C[C@@H](NC(=O)CCC(F)(F)F)c1ccc2nc([C@@H](NC(=O)c3cc(F)ccc3F)C3CCC(F)(F)CC3)[nH]c2c1 [Example 123, N—((S)-(4,4-Difluorocyclohexyl)(6-((R)-1-(4,4,4-trifluorobutanamido)ethyl)-1H-benzo[d]imidazol-2-yl)methyl)-2,5-difluorobenzamide] | > 100 | > 100
C[C@H](NC(=O)CCC(F)(F)F)c1ccc2[nH]c([C@@H](NC(=O)c3ccnn3CCC(F)(F)F)C3CCC(F)(F)CC3)nc2c1 [Example 124, N—((S)-(4,4-Difluorocyclohexyl)(5-((S)-1-(4,4,4-trifluorobutanamido)ethyl)-1H-benzo[d]imidazol-2-yl)methyl)-1-(3,3,3-trifluoropropyl)-1H-pyrazole-5-carboxamide] | > 100 | > 100
CC(C)n1nccc1C(=O)N[C@H](c1nc2cc([C@@H](C)NC(=O)CC(C(F)(F)F)C(F)(F)F)ccc2[nH]1)C1CCC(F)(F)CC1 [Example 125, N—((S)-(4,4-Difluorocyclohexyl)(5-((R)-1-(4,4,4-trifluoro-3-(trifluoromethyl)butanamido)ethyl)-1H-benzo[d]imidazol-2-yl)methyl)-1-isopropyl-1H-pyrazole-5-carboxamide] | < 50 | > 100
C[C@@H](NC(=O)CC(C(F)(F)F)C(F)(F)F)c1ccc2[nH]c([C@@H](NC(=O)c3ccnn3CCC(F)(F)F)C3CCC(F)(F)CC3)nc2c1 [Example 126, N—((S)-(4,4-Difluorocyclohexyl)(5-((R)-1-(4,4,4-trifluoro-3-(trifluoromethyl)butanamido)ethyl)-1H-benzo[d]imidazol-2-yl)methyl)-1-(3,3,3-trifluoropropyl)-1H-pyrazole-5-carboxamide] | 50 to 100 | > 100
CCn1nccc1C(=O)N[C@H](c1nc2cc([C@@H](C)NC(=O)CC(C(F)(F)F)C(F)(F)F)ccc2[nH]1)C1CCC(F)(F)CC1 [Example 127, N—((S)-(4,4-Difluorocyclohexyl)(5-((R)-1-(4,4,4-trifluoro-3-(trifluoromethyl)butanamido)ethyl)-1H-benzo[d]imidazol-2-yl)methyl)-1-ethyl-1H-pyrazole-5-carboxamide] | < 50 | 50 to 100
C[C@@H](NC(=O)CCC(F)(F)F)c1ccc2[nH]c([C@@H](NC(=O)c3ccnn3CC(F)(F)F)C3CCC(F)(F)CC3)nc2c1 [Example 128, N—((S)-(4,4-Difluorocyclohexyl)(5-((R)-1-(4,4,4-trifluorobutanamido)ethyl)-1H-benzo[d]imidazol-2-yl)methyl)-1-(2,2,2-trifluoroethyl)-1H-pyrazole-5-carboxamide] | > 100 | > 100
C[C@@H](NC(=O)CC(C(F)(F)F)C(F)(F)F)c1ccc2[nH]c([C@@H](NC(=O)c3ccnn3CC(F)(F)F)C3CCC(F)(F)CC3)nc2c1 [Example 129, N—((S)-(4,4-Difluorocyclohexyl)(5-((R)-1-(4,4,4-trifluoro-3-(trifluoromethyl)butanamido)ethyl)-1H-benzo[d]imidazol-2-yl)methyl)-1-(2,2,2-trifluoroethyl)-1H-pyrazole-5-carboxamide] | 50 to 100 | > 100
C[C@@H](NC(=O)CC(C(F)(F)F)C(F)(F)F)c1ccc2[nH]c([C@@H](NC(=O)c3cc(F)ccc3F)C3CCC(F)(F)CC3)nc2c1 [Example 130, N—((S)-(4,4-Difluorocyclohexyl)(6-((R)-1-(4,4,4-trifluoro-3-(trifluoromethyl)butanamido)ethyl)-1H-benzo[d]imidazol-2-yl)methyl)-2,5-difluorobenzamide] | > 100 | > 100
C[C@@H](NC(=O)CCC(F)(F)F)c1ccc2nc([C@@H](NC(=O)c3cccc(C#N)c3)C3CCC(F)(F)CC3)[nH]c2c1 [Example 131, 3-Cyano-N—((S)-(4,4-difluorocyclohexyl)(6-((R)-1-(4,4,4-trifluorobutanamido)ethyl)-1H-benzo[d]imidazol-2-yl)methyl)benzamide] | > 100 | > 100
C[C@@H](NC(=O)CC(C(F)(F)F)C(F)(F)F)c1ccc2nc([C@@H](NC(=O)c3cccc(C#N)c3)C3CCC(F)(F)CC3)[nH]c2c1 [Example 132, 3-Cyano-N—((S)-(4,4-difluorocyclohexyl)(6-((R)-1-(4,4,4-trifluoro-3-(trifluoromethyl)butanamido)ethyl)-1H-benzo[d]imidazol-2-yl)methyl)benzamide] | > 100 | > 100
Cc1nonc1C(=O)N[C@H](c1nc2cc([C@H](NC(=O)CC3CC(F)(F)C3)C3CC3)ccc2[nH]1)C1CCC(F)(F)CC1 [Example 141, N—((S)-(5-((R)-Cyclopropyl(2-(3,3-difluorocyclobutyl)acetamido)methyl)-1H-benzo[d]imidazol-2-yl)(4,4-difluorocyclohexyl)methyl)-4-methyl-1,2,5-oxadiazole-3-carboxamide] | < 50 | < 50
CC(C)n1nccc1C(=O)N[C@H](c1nc2cc([C@H](NC(=O)CC3CC(F)(F)C3)C3CC3)ccc2[nH]1)C1CCC(F)(F)CC1 [Example 142, N—((S)-(5-((R)-Cyclopropyl(2-(3,3-difluorocyclobutyl)acetamido)methyl)-1H-benzo[d]imidazol-2-yl)(4,4-difluorocyclohexyl)methyl)-1-isopropyl-1H-pyrazole-5-carboxamide] | < 50 | 50 to 100
O=C(CC1CC(F)(F)C1)N[C@@H](c1ccc2[nH]c([C@@H](NC(=O)c3nonc3C3CC3)C3CCC(F)(F)CC3)nc2c1)C1CC1 [Example 143, 4-Cyclopropyl-N—((S)-(5-((R)-cyclopropyl(2-(3,3-difluorocyclobutyl)acetamido)methyl)-1H-benzo[d]imidazol-2-yl)(4,4-difluorocyclohexyl)methyl)-1,2,5-oxadiazole-3-carboxamide] | < 50 | < 50
O=C(CC1CC(F)(F)C1)N[C@@H](c1ccc2[nH]c([C@@H](NC(=O)c3nonc3OCC(F)F)C3CCC(F)(F)CC3)nc2c1)C1CC1 [Example 144, N—((S)-(5-((R)-Cyclopropyl(2-(3,3-difluorocyclobutyl)acetamido)methyl)-1H-benzo[d]imidazol-2-yl)(4,4-difluorocyclohexyl)methyl)-4-(2,2-difluoroethoxy)-1,2,5-oxadiazole-3-carboxamide] | < 50 | > 100
Cc1nonc1C(=O)N[C@H](c1nc2cc([C@@H](NC(=O)CC3CC(F)(F)C3)C3CC3)ccc2[nH]1)C1CCC(F)(F)CC1 [Example 145, N—((S)-(5-((S)-Cyclopropyl(2-(3,3-difluorocyclobutyl)acetamido)methyl)-1H-benzo[d]imidazol-2-yl)(4,4-difluorocyclohexyl)methyl)-4-methyl-1,2,5-oxadiazole-3-carboxamide] | > 100 | > 100
CC(C)n1nccc1C(=O)N[C@H](c1nc2cc([C@@H](NC(=O)CC3CC(F)(F)C3)C3CC3)ccc2[nH]1)C1CCC(F)(F)CC1 [Example 146, N—((S)-(5-((S)-Cyclopropyl(2-(3,3-difluorocyclobutyl)acetamido)methyl)-1H-benzo[d]imidazol-2-yl)(4,4-difluorocyclohexyl)methyl)-1-isopropyl-1H-pyrazole-5-carboxamide] | > 100 | > 100
O=C(N[C@H](c1nc2cc([C@H](NC(=O)C(F)(F)CC3CC3)C3CC3)ccc2[nH]1)C1CCC(F)(F)CC1)c1nonc1C1CC1 [Example 147, 4-Cyclopropyl-N—((S)-(5-((R)-cyclopropyl(3-cyclopropyl-2,2-difluoropropanamido)methyl)-1H-benzo[d]imidazol-2-yl)(4,4-difluorocyclohexyl)methyl)-1,2,5-oxadiazole-3-carboxamide] | < 50 | 50 to 100
CC(C)n1nccc1C(=O)N[C@@H](CC1CC2(C1)CC(F)(F)C2)c1nc2ccc([C@H](NC(=O)CC3CC(F)(F)C3)C3CC3)cc2[nH]1 (stereo partly drawn) [Example 148, N—((S)-1-(6-((R)-Cyclopropyl(2-(3,3-difluorocyclobutyl)acetamido)methyl)-1H-benzo[d]imidazol-2-yl)-2-(6,6-difluorospiro[3.3]heptan-2-yl)ethyl)-1-isopropyl-1H-pyrazole-5-carboxamide] | > 100 | > 100
CC(C)(OC[C@H](NC(=O)c1nonc1C1CC1)c1nc2ccc([C@H](NC(=O)CC3CC(F)(F)C3)C3CC3)cc2[nH]1)C(F)(F)F [Example 159, 4-Cyclopropyl-N—((R)-1-(6-((R)-cyclopropyl(2-(3,3-difluorocyclobutyl)acetamido)methyl)-1H-benzo[d]imidazol-2-yl)-2-((1,1,1-trifluoro-2-methylpropan-2-yl)oxy)ethyl)-1,2,5-oxadiazole-3-carboxamide] | < 50 | < 50
